We go through 4 compounds from ChEMBL document CHEMBL1201862, “PubChem BioAssay data set” (2004).

In general, GI50 refers to the concentration at which growth is held to half of that of the control.

Test systems include SW-620; HCC 2998; NCI/ADR-RES; HCT-116; NCI-H226; SK-MEL-5; SR; CAKI-1; OVCAR-3; HL-60; T47D; HOP-62; U-251; SK-MEL-28; NCI-H460; RPMI-8226; SNB-75; NCI-H522; MOLT-4.
What all share (assay): DTP human tumour cell line panel, 48 h

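Values below derive from 48-hour exposures of cells grown in 96-well plates, with endpoints linearly interpolated between the two concentrations bracketing the appropriate inhibition level. Here, GI50 denotes the concentration required for 50% inhibition of growth.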 Active and inactive are the calls of the source. No stated cut-off is given here; in the data, active = GI50 up to about 1.1 µM and inactive = higher.

For `COc1cc(C#CC(=O)OC/C=C/c2ccc3c(c2)OCO3)cc(OC)c1OC`, the GI50 in the test with SW-620 is 27.5 µM (inactive); with HCC 2998, 26.2 µM (inactive); with NCI/ADR-RES, 20 µM (inactive); in the test on HCT-116, 22.7 µM (inactive); in the test with NCI-H226 it was 21.4 µM (inactive); with SK-MEL-5, 17.5 µM (inactive). In addition, the GI50 is 16.7 µM (inactive) in the test on SR; 22.1 µM (inactive) in the test on CAKI-1; 26.5 µM (inactive) in the test with OVCAR-3; 36.5 µM (inactive) in the test with HL-60; 59.6 µM (inactive) in the test on T47D; 24 µM (inactive) with HOP-62. Further, the GI50 in the test with U-251 is 29.4 µM (inactive); in the test on SK-MEL-28, > 100 µM (inactive); in the test with NCI-H460, 24.9 µM (inactive); in the test with RPMI-8226 it was 20.5 µM (inactive).

In the case of `CN[C@@H](C)[C@H](OP(=O)(O)OC1[C@@H](O)[C@H](O)C(O)[C@H](O)[C@@H]1O)c1ccccc1` (some centres not stated), the GI50 in the test on SW-620, in the test on HCC 2998, with NCI/ADR-RES, in the test with SNB-75, in the test with HCT-116 and with NCI-H226 was > 100 µM (inactive) throughout. The GI50 with SK-MEL-5, in the test with CAKI-1, with OVCAR-3, in the test on HL-60, in the test with T47D and in the test with NCI-H522 was > 100 µM (inactive) in each case. Besides, the GI50 in the test with HOP-62, with MOLT-4, with U-251, in the test with SK-MEL-28, in the test with NCI-H460 and in the test with RPMI-8226 was > 100 µM (inactive) throughout.

For the compound `CN(C)CCNc1ccc([N+](=O)[O-])c2nc3ccccc3c(N)c12`, the GI50 with SW-620 was 0.297 µM (active); with NCI/ADR-RES it was 0.569 µM (active); in the test on SNB-75 it was 0.841 µM (active); in the test on HCT-116 it was 0.261 µM (active); with NCI-H226, > 10 µM (inactive); in the test with SK-MEL-5 it was 1.41 µM (inactive). Further, the concentration for 50% growth inhibition (GI50) with SR is 0.282 µM (active); in the test with CAKI-1 it was 1.84 µM (inactive); in the test with OVCAR-3, 0.532 µM (active); in the test on HL-60, 0.741 µM (active); in the test with T47D, 0.48 µM (active); with HOP-62, 2.26 µM (inactive). Moreover, the concentration for 50% growth inhibition (GI50) with MOLT-4 was 0.434 µM (active); in the test on U-251, 0.703 µM (active); in the test with SK-MEL-28, 3.83 µM (inactive); in the test with NCI-H460, 0.318 µM (active); with RPMI-8226, 0.31 µM (active).

Consider `C=C1C(=O)O[C@@H]2[C@H]1CC[C@H](C)[C@]1(O)CCC(=O)[C@@]21C` [CORONOPILIN], for which the GI50 with SW-620, with HCC 2998, with NCI/ADR-RES, with SNB-75, in the test with HCT-116 and in the test with NCI-H226 was > 10 µM (inactive) in each case. For the same compound, the GI50 in the test with SK-MEL-5 was > 10 µM (inactive); in the test with SR, 5.73 µM (inactive); in the test on OVCAR-3 it was > 10 µM (inactive); in the test on HL-60, 3.66 µM (inactive); with T47D, > 10 µM (inactive); with HOP-62 it was > 10 µM (inactive). Also, the GI50 in the test with MOLT-4, in the test on U-251, in the test with SK-MEL-28 and with RPMI-8226 was > 10 µM (inactive) each time.
